Experimental data: the kinase profiling compilation of Christmann-Franck et al. (2016)

Experiments:
Test in all cases: KINOMEscan competition binding
Settings in all cases: compound 10.0 µM
FLT4 (human) = FLT4 (human) (UniProt P35916)
CAMK2B (human) = CAMK2B (human) (UniProt Q13554)
TNIK (human) = TNIK (human) (UniProt Q9UKE5)
LIMK2 (human) = LIMK2 (human) (UniProt P53671)
CSNK1G3 (human) = CSNK1G3 (human) (UniProt Q9Y6M4)
NLK (human) = NLK (human) (UniProt Q9UBE8)
MYLK (human) = MYLK (human) (UniProt Q15746)
CDK8 (human) = CDK8 (human) (UniProt P49336)
MAP4K4 (human) = MAP4K4 (human) (UniProt O95819)
PRKAA1 (human) = PRKAA1 (human) (UniProt Q13131)
CAMK2A (human) = CAMK2A (human) (UniProt Q9UQM7)
RIPK1 (human) = RIPK1 (human) (UniProt Q13546)
RIOK1 (human) = RIOK1 (human) (UniProt Q9BRS2)
CSNK2A1 (human) = CSNK2A1 (human) (UniProt P68400)
MST4 (human) = MST4 (human) (UniProt Q9P289)
MAPK6 (human) = MAPK6 (human) (UniProt Q16659)
MELK (human) = MELK (human) (UniProt Q14680)
SIK2 (human) = SIK2 (human) (UniProt Q9H0K1)
BRSK1 (human) = BRSK1 (human) (UniProt Q8TDC3)
FGR (human) = FGR (human) (UniProt P09769)
AURKC (human) = AURKC (human) (UniProt Q9UQB9)
CSNK2A2 (human) = CSNK2A2 (human) (UniProt P19784)
SRPK1 (human) = SRPK1 (human) (UniProt Q96SB4)
PRKD1 (human) = PRKD1 (human) (UniProt Q15139)
AKT2 (human) = AKT2 (human) (UniProt P31751)
CLK1 (human) = CLK1 (human) (UniProt P49759)
CAMK2D (human) = CAMK2D (human) (UniProt Q13557)
MKNK1 (human) = MKNK1 (human) (UniProt Q9BUB5)
PRKCQ (human) = PRKCQ (human) (UniProt Q04759)
PRKCH (human) = PRKCH (human) (UniProt P24723)
LATS1 (human) = LATS1 (human) (UniProt O95835)
NUAK2 (human) = NUAK2 (human) (UniProt Q9H093)
RPS6KA4 KD2 (human) = RPS6KA4 KD2 (human) (UniProt O75676)
ERBB2 (human) = ERBB2 (human) (UniProt P04626)
STK35 (human) = STK35 (human) (UniProt Q8TDR2)
AKT3 (human) = AKT3 (human) (UniProt Q9Y243)
CSNK1G2 (human) = CSNK1G2 (human) (UniProt P78368)
PAK1 (human) = PAK1 (human) (UniProt Q13153)

Sequence of RIPK1 (human) (Q13546 whole entry, looked up): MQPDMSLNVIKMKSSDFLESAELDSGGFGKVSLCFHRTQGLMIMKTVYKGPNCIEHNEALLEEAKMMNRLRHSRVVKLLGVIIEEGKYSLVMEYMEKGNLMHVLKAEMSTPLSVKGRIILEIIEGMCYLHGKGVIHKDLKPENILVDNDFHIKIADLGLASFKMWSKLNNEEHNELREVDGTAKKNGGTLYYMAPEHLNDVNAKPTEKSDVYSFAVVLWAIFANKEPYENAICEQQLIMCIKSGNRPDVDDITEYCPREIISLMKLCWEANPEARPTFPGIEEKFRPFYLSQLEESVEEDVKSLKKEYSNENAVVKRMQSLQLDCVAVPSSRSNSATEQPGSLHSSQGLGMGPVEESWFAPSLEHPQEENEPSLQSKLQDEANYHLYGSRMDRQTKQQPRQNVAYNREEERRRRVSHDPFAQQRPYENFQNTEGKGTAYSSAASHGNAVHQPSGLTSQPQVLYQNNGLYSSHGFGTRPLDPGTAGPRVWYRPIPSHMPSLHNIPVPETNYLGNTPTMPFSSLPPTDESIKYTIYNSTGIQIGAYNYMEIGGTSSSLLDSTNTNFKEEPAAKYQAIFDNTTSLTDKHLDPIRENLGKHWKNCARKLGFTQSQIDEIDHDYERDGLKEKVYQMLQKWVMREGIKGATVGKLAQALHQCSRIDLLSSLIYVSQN
Sequence of CAMK2D (human) (Q13557 whole entry, looked up): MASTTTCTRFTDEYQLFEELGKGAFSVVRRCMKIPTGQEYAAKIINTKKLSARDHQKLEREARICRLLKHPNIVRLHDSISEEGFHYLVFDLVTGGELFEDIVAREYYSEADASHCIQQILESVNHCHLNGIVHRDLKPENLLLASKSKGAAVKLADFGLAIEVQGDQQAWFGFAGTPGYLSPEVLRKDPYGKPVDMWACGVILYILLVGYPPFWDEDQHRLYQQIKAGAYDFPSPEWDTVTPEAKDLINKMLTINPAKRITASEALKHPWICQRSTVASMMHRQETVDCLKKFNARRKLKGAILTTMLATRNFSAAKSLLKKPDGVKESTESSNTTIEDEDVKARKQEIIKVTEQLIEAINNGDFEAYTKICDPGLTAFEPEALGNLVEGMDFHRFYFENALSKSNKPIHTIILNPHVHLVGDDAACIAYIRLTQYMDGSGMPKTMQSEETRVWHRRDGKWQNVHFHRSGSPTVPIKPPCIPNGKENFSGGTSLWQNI
Sequence of PRKAA1 (human) (Q13131 whole entry, looked up): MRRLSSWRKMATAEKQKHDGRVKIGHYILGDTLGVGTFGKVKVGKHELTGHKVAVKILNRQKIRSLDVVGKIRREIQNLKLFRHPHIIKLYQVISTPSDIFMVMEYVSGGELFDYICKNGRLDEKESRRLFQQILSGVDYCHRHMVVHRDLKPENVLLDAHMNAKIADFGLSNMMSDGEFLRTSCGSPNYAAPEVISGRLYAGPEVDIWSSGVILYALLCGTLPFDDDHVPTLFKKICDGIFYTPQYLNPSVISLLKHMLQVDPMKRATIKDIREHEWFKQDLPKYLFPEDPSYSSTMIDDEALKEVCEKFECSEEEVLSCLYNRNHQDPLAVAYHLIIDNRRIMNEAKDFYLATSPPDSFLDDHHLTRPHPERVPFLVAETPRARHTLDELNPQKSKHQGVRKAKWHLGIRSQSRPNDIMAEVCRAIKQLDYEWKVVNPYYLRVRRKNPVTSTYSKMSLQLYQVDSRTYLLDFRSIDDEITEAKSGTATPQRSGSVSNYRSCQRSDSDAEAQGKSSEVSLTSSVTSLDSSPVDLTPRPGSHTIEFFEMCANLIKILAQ
Sequence of CAMK2A (human) (Q9UQM7 whole entry, looked up): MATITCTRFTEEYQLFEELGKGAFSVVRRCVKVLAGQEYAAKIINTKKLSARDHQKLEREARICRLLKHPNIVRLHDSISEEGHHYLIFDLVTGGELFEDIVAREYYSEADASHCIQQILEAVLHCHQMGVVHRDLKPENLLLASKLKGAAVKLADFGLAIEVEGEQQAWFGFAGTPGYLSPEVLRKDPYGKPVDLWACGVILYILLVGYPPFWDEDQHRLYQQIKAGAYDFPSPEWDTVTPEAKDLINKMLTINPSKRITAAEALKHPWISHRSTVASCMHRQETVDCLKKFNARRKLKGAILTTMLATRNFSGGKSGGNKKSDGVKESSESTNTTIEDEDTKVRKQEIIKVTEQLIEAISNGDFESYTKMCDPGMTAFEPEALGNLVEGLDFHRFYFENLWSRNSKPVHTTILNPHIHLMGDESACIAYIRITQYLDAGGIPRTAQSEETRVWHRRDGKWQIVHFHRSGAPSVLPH
Sequence of LATS1 (human) (O95835 whole entry, looked up): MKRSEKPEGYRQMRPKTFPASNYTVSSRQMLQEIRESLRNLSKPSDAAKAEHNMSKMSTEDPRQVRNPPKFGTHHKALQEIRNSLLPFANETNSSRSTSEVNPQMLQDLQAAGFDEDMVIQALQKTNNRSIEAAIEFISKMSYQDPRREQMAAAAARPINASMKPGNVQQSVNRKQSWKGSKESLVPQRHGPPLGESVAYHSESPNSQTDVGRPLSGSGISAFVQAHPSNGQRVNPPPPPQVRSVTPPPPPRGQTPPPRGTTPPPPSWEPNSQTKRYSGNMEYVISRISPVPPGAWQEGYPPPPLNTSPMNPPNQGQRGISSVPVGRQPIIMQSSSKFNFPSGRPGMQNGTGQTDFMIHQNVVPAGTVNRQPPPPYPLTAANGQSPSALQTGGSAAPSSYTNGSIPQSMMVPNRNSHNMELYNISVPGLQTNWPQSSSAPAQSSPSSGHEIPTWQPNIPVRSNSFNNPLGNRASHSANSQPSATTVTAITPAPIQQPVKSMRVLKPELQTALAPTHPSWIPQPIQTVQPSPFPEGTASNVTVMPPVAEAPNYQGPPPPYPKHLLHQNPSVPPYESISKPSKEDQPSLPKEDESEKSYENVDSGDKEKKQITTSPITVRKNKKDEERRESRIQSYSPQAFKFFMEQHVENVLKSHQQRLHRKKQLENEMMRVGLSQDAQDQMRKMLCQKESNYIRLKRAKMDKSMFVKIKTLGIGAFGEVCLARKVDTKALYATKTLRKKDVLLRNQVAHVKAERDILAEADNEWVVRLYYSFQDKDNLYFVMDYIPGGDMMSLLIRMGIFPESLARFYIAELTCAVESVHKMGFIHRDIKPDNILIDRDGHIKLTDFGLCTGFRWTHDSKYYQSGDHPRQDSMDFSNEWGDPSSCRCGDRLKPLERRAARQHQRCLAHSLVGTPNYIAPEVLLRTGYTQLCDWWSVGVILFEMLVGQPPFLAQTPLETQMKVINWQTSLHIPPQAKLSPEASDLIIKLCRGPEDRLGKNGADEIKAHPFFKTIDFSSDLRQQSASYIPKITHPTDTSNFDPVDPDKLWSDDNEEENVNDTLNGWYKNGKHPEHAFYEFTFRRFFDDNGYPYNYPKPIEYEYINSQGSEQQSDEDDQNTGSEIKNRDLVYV
Sequence of STK35 (human) (Q8TDR2 whole entry, looked up): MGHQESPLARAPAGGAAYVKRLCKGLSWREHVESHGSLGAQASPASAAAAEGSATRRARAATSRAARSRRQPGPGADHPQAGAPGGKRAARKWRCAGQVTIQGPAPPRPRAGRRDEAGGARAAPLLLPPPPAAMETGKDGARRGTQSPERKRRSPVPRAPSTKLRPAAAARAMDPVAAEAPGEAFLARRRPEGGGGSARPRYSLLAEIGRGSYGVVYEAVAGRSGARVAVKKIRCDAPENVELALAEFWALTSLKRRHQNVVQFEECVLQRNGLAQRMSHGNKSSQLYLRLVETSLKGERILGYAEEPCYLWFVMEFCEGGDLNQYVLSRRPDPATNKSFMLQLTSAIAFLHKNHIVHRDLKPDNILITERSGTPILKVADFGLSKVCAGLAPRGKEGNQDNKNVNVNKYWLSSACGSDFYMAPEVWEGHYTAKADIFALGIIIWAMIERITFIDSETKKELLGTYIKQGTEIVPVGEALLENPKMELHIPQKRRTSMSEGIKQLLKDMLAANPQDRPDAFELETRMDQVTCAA
Sequence of CSNK2A1 (human) (P68400 whole entry, looked up): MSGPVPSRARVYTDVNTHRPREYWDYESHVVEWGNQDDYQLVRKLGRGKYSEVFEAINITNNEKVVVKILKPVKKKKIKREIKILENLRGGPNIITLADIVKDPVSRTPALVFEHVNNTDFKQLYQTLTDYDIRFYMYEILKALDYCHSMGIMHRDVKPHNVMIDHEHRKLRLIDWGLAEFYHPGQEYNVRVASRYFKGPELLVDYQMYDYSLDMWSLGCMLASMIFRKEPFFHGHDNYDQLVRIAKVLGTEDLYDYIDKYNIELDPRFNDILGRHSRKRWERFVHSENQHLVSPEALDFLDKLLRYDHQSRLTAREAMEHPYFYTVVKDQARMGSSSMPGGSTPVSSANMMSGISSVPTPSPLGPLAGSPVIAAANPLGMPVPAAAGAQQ
Sequence of AKT2 (human) (P31751 whole entry, looked up): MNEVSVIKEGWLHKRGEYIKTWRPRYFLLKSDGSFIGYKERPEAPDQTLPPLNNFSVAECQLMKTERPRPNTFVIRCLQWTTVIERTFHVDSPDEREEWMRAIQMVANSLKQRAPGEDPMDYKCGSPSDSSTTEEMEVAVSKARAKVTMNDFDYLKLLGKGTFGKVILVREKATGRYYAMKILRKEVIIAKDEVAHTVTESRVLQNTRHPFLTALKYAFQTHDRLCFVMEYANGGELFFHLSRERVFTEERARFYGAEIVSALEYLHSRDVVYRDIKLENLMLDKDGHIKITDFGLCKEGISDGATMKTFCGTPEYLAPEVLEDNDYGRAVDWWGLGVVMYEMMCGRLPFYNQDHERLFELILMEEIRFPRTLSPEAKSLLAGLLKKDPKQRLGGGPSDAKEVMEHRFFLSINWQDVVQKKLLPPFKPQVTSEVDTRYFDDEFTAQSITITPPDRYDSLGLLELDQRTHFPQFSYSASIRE

Compound: COc1cc(N2CCN(C)CC2)ccc1Nc1nc(N)c(C(=O)c2c(Cl)cccc2Cl)s1
- kinase still bound, per cent of control (FLT4 (human)): 100%
- kinase still bound, per cent of control (CAMK2B (human)): 20%
- kinase still bound, per cent of control (TNIK (human)): 69%
- kinase still bound, per cent of control (LIMK2 (human)): 94%
- kinase still bound, per cent of control (CSNK1G3 (human)): 79%
- kinase still bound, per cent of control (NLK (human)): 85%
- kinase still bound, per cent of control (MYLK (human)): 18%
- kinase still bound, per cent of control (CDK8 (human)): 100%
- kinase still bound, per cent of control (MAP4K4 (human)): 76%
- kinase still bound, per cent of control (PRKAA1 (human)): 81%
- kinase still bound, per cent of control (CAMK2A (human)): 20%
- kinase still bound, per cent of control (RIPK1 (human)): 100%
- kinase still bound, per cent of control (RIOK1 (human)): 100%
- kinase still bound, per cent of control (CSNK2A1 (human)): 91%
- kinase still bound, per cent of control (MST4 (human)): 100%
- kinase still bound, per cent of control (MAPK6 (human)): 100%
- kinase still bound, per cent of control (MELK (human)): 100%
- kinase still bound, per cent of control (SIK2 (human)): 100%
- kinase still bound, per cent of control (BRSK1 (human)): 91%
- kinase still bound, per cent of control (FGR (human)): 93%
- kinase still bound, per cent of control (AURKC (human)): 100%
- kinase still bound, per cent of control (CSNK2A2 (human)): 88%
- kinase still bound, per cent of control (SRPK1 (human)): 100%
- kinase still bound, per cent of control (PRKD1 (human)): 44%
- kinase still bound, per cent of control (AKT2 (human)): 100%
- kinase still bound, per cent of control (CLK1 (human)): 22%
- kinase still bound, per cent of control (CAMK2D (human)): 23%
- kinase still bound, per cent of control (MKNK1 (human)): 51%
- kinase still bound, per cent of control (PRKCQ (human)): 54%
- kinase still bound, per cent of control (PRKCH (human)): 93%
- kinase still bound, per cent of control (LATS1 (human)): 100%
- kinase still bound, per cent of control (NUAK2 (human)): 60%
- kinase still bound, per cent of control (RPS6KA4 KD2 (human)): 100%
- kinase still bound, per cent of control (ERBB2 (human)): 100%
- kinase still bound, per cent of control (STK35 (human)): 100%
- kinase still bound, per cent of control (AKT3 (human)): 100%
- kinase still bound, per cent of control (CSNK1G2 (human)): 100%
- kinase still bound, per cent of control (PAK1 (human)): 91%
